# Results as given in a melting point compilation (Tetko et al.; mined from patent text by program, amines drawn as free bases though some values may be those of a salt).
row,SMILES,melting point [°C]
1,CC1(C)CON(Cc2ccc(NC(=O)C3=C(C(=O)O)CCCC3)cc2Br)C1=O,149 to 151
2,CC(=O)NCc1ccc(C(=O)CCCN2CCC(c3noc4cc(F)ccc34)CC2)s1,140 to 142
3,CCC(=O)Oc1ccc(CC(=O)O)cc1C(C)(C)C,55.5 to 56.5
4,COC(=O)CCc1cccc(-n2c(C)nn(-c3ccc(C#N)cc3)c2=O)c1,134 to 137
5,CN(C)CC(Cc1ccccc1)NC(=O)c1ccccc1 (stereo unspecified),110
6,CC#CC(C)(C)N(C)C(=O)C(CC)Oc1cncc(Cl)c1 (stereo unspecified),67 to 68
7,CC(C)(C)c1ccc(-c2nn(-c3ccc(F)cc3F)c3c2C2CCC3C2)cc1 (stereo unspecified),130 to 132
8,CCOC(=O)C(C)(C)Oc1ccc(-c2ccc(CCNC(=O)c3ccc(OC)c(OC)c3)cc2)cc1,118
9,CC(=O)Nc1nc2c(ncn2COC(COC(C)=O)COC(C)=O)c(=O)[nH]1,172
10,COc1ccc(-c2csc(N)n2)cc1OC1CC2CCC1C2 (stereo unspecified),168 to 178
11,COc1ccc(-c2nc(C(N)=O)cn2-c2ccc(OC)cc2)cc1,167 to 169
12,CCCCc1cc(C(O)=S)cc(N)c1C(=O)c1ccccc1,144 to 145
13,O=C(c1ccccc1)c1ccc2n1CCCCC2C(=O)O (stereo unspecified),163 to 165
14,CCCCn1nc2c(N)nc3ccccc3c2c1CC(C)C,165 to 166
15,O=C1c2ccccc2C(=O)N1CC(=O)N1c2ccccc2N(CCc2ccccc2)C(=O)[C@H]2CCC[C@H]21 (relative stereo),178 to 179
16,O=C1c2c(Cl)cccc2-n2cnc(-c3noc(CCl)n3)c2[C@@H]2CCCN12,184 to 186
17,CC(C)(C)OC(=O)NC(CO)c1ccc(F)cc1 (stereo unspecified),85 to 86
18,COC(=O)c1cc(-c2ccc(S(C)(=O)=O)cc2)n(C2CCCCCC2)n1,115 to 117
19,CC(=O)c1ccsc1S(N)(=O)=O,193 to 196
20,CCSc1nc(=O)n(C(=O)Nc2cccc(Cl)c2)s1,168
21,CCCC[C@H](NC(=O)[C@H](CC(C)C)NC(=O)OCc1ccccc1)C(=O)CCCc1cccs1,65 to 67
22,N#CC1c2cccc(Br)c2C=CN1C(=O)c1ccccc1 (stereo unspecified),177 to 178
23,CCCCN(C)CCc1ccc(Nc2ncc3c(n2)-c2ccccc2C(c2ccccc2C(F)(F)F)C3)cc1 (stereo unspecified),80 to 82
24,Cc1cccc(C)c1NC(N)=NOC1CCCCO1 (stereo unspecified),196 to 197
25,CCOc1ccc2c(c1)C(C)=CC(C)(C)N2C1O[C@H](COC(C)=O)[C@@H](OC(C)=O)[C@H](OC(C)=O)[C@H]1OC(C)=O (stereo partly specified),180 to 181
26,COC(=O)C=Cc1cnc(SC)nc1NCc1ccc(OC)c(Cl)c1,141 to 142

row,SMILES,melting point [°C]
1,CN(C)NC(=O)c1cc(S(C)(=O)=O)c(Cl)cc1NCc1ccco1,90 to 104
2,Cc1nc(NC(=O)NS(=O)(=O)C(Cl)C(C)Cl)nc(C)c1Cl (stereo unspecified),161 to 162
3,O=C(Nc1ccccc1)Nc1ccnc(F)c1,179 to 180
4,CC(C)C[C@H](NC(=O)CCS)C(=O)O,131 to 132
5,COc1cccc2c1C(N)=NS2(=O)=O,270
6,C=CCC(CCC(CC=C)(C(=O)c1ccc(NCCO)cc1)N(C)C)(C(=O)c1ccc(NCCO)cc1)N(C)C (stereo unspecified),95 to 96
7,N=C(N)Nc1ncc(CSCCN)s1,150 to 153
8,COC(=O)N(C)CCCC(=O)OC[C@@H]1CC(c2ccc(-c3ccc(N4C[C@H](Cn5ccnn5)OC4=O)cc3F)cn2)=NO1,135
9,O=CNCc1ccc(CN2CCN(c3ncccn3)CC2)cc1,97 to 98
10,CCOC(=O)c1ccc(N2CCC(NCC(O)COc3ccc(N=Nc4ccc([N+](=O)[O-])cc4)nc3)CC2)nc1 (stereo unspecified),172
11,CCOc1ccc(C2=NN(C(=O)c3cccnc3)CC2)cc1,124 to 125
12,CC(C)OC(=O)N1CC(=O)Nc2ccc(-c3cccc(Cl)c3)cc21,174 to 176
13,C=C(C(=O)c1ccc(C(=O)O)cc1)c1cc(-c2cccs2)ccc1OC,> 250
14,Cc1cnc2c(c1)cc1c3c(cc([N+](=O)[O-])cc32)C(=O)OC1=O,261 to 262
15,NCC1CC(n2cc(-c3cccc(F)c3)c3c(N)ncnc32)C1 (stereo unspecified),101 to 102
16,COc1ccc(-c2cc(Cl)c3ccc(OC)cc3n2)cc1,99 to 101
17,Cc1nnc(-c2ccccc2O)o1,74 to 76
18,Cc1nc2c(-c3cccc(N4CCN(C)CC4)c3)cnn2c(N)c1-c1cccc(Br)c1,107 to 113
19,N#Cc1c(Cl)cccc1C(Br)Br,120
20,O=C(CCc1ccccc1)Nc1ccc2c(c1)C(=O)c1cc(NC(=O)CCc3ccccc3)ccc1C2=O,268
21,Cc1c(CNCC2CCOCC2)[nH]c2ccc(NC(=O)c3ccc(OC[C@@H]4CCCO4)cc3)cc12,146 to 147
22,CCC(=O)N1CCC(NC(=O)Nc2ccccc2Cl)CC1,150 to 157
23,O=C1Cc2cc(NC(=O)C(=O)N3CCC(Oc4ccccc4)CC3)ccc2N1,78 to 81
24,CCOC(=O)c1cccn2cc(C(F)(F)F)nc12,108 to 110
25,O=C(O)c1ccc(OCCN2CCOCC2)cc1,112 to 114
26,COc1ccc(OC)c2c1CCC(O)(CC(=O)O)C2 (stereo unspecified),112 to 114

row,SMILES,melting point [°C]
1,N#CC1=C(C#N)SC(c2ccccc2)CS1 (stereo unspecified),122 to 124
2,CN(C)CCc1ccc(N)cc1,40
3,CC(C(=O)N(C)C)n1ccc(-c2c(Cl)cccc2Cl)n1 (stereo unspecified),88 to 90
4,O=C(O)c1ccccc1C(=O)c1ccc(F)cc1F,129 to 131
5,CN(C)c1ccc(NC(=O)N2CCC(Nc3nccc(-c4c(-c5ccc(F)cc5)nc5occn45)n3)CC2)cc1,225 to 227
6,CS(=O)(=O)c1cnc(Cl)c(Cl)c1,129 to 130
7,COc1ncccc1Oc1cc(-n2c(=O)cc(C(F)(F)F)n(C)c2=O)c(F)cc1Cl,180
8,COc1cc(OC(C)(C)C(=O)O)c(-c2cccs2)cc1/C=C/C(=O)c1ccc(NS(C)(=O)=O)cc1,181 to 183
9,CCOC(=O)[C@@H](CNC(=O)c1ccccc1)[C@H](O)C(F)(F)F,108 to 110
10,O=C1CCC(N2Cc3c(OCc4cccc(CN5CCn6nc(C(F)(F)F)nc6C5)c4)cccc3C2=O)C(=O)N1 (stereo unspecified),213 to 215
11,CCC(CN1C(=O)c2ccccc2C1=O)n1cnc(-c2cccnc2)c1 (stereo unspecified),150 to 152
12,Cc1cc(Oc2ncc(C(F)(F)F)cc2Cl)nn1C(=O)N(C(C)C)C(C)C,58 to 60
13,O=C(N[C@H](Cc1ccc(F)cc1)[C@@H](O)c1ccc(C(F)(F)F)cc1)c1cccc2ccccc12 (racemic),207 to 208
14,CC(=O)OC1CCN(Cc2nc(-c3cc(C(C)(C)C)c(O)c(C(C)(C)C)c3)cs2)CC1,160 to 161
15,CCOc1ccc(OCCCN2CCC(C(O)(c3ccc(F)cc3)c3ccc(F)cc3)CC2)cc1,89 to 91
16,CC(C)Cc1c2c(nn1C)c(O)nc1ccccc12,> 280
17,CCNC(=Nc1ccccc1N1CCOCC1)NC,118 to 119
18,Cc1ccc(C(=O)Nc2ccc(C(=O)CCC(=O)O)cc2)cc1,257 to 258
19,CN(C)CCCOc1ccc(C(=O)NN)cn1,81 to 83
20,Cc1cc2c(cc1C(=O)c1ccccc1Cl)OC(C(=O)O)O2 (stereo unspecified),133 to 135
21,CC(C)(C)c1ccc2c(c1)C(COCc1ccccc1)([Si](C)(C)C)c1cc(C(C)(C)C)ccc1-2,100 to 102
22,CC(C)(C)NCC(O)COc1ccc(C(N)=O)cc1I (stereo unspecified),111 to 114
23,CCCc1nn(C)c2c(=O)n(CCOc3cccc(OC(C)(C)C(=O)O)c3)c(C)nc12,140 to 142
24,Cn1c2ccccc2c2nc3cccc(CCl)c3nc21,204 to 206
25,O=NN(CCCl)C(=O)NCc1ccccn1,70
26,O=C(O)c1ccc(NCCCCc2cccs2)cc1,137 to 140

row,SMILES,melting point [°C]
1,c1cnc2[nH]c(C3CCNC3)cc2c1 (stereo unspecified),130 to 133
2,c1ccc2oc(NCc3ccncc3)nc2c1,148
3,CC1COc2c(ccc(F)c2F)N1 (stereo unspecified),51
4,Nc1c(-c2csc(-c3ccncc3)n2)c(=O)[nH]c2ccc(N3CCCCC3)cc12,199 to 202
5,CC1CCc2ccc(OCC3CO3)cc2O1 (stereo unspecified),67 to 69
6,OCc1ccc(-c2ccc(-c3cn([C@H]4CN5CCC4CC5)nn3)o2)cc1,209
7,Cc1cccc(Cn2cc(-c3cn(C4CC(O)C(CO)O4)c(=O)[nH]c3=O)nn2)c1 (stereo unspecified),132 to 133
8,O=C(Nc1ccc(-n2nc(C(F)(F)F)cc2C2CC2)nc1)c1c(F)cccc1F,157 to 162
9,N#Cc1ccc(Nn2cnnc2)cc1-c1ccc(F)cc1,231 to 234
10,O=C(COc1cccc2cccnc12)c1ccc(Cl)cc1,111 to 112
11,O=Cc1cc(OCCCNC(=O)NC2CCCCC2)ccc1[N+](=O)[O-],150 to 152
12,OC(=S)Cc1cccc2ccccc12,106
13,CCCc1nnc2c(=O)n(C)c3ccc(C(F)(F)F)cc3n12,257 to 258
14,FC(F)(F)C1(c2cc(Cl)cc(Cl)c2)CC(c2ccc(Br)nc2)=NO1 (stereo unspecified),147 to 148
15,COc1ccc(-c2cc(-c3sc(N)nc3-c3cccc(C)n3)ccn2)cc1,188 to 190
16,CCCCOc1ccc(NC(=O)c2cnc(C(=O)O)c(OC)c2)cc1,128 to 130
17,Cc1c(NC(=O)C(CSC(=O)C2CCCCC2)Cc2ccccc2)cccc1C(=O)O (stereo unspecified),117 to 120
18,CN(Cc1cc2c(=O)c(C(=O)NCc3ccc(Cl)cc3)cn(C)c2o1)CC(CO)c1ccccc1 (stereo unspecified),141 to 148
19,CCn1c(=O)ccc2cnc(Nc3ccc(N4CCOCC4)cc3)nc21,227 to 228
20,c1ccc(COc2ccc3c(c2)N=C(NCc2cccnc2)c2ccccc2N3)cc1,196 to 197
21,Cc1nnc2n1-c1sc(Cc3ccccc3)cc1C(c1ccccc1Cl)=NC2,161 to 163
22,CCCCCCCCOc1ccc(-c2nnc(-c3cc(Cl)ccc3Cl)o2)cc1,86
23,CC(C)(C)OC(=O)CNc1nc(NCc2ccc(NC(=O)c3ccc(F)cc3)cc2)c2ccccc2n1,96
